Test results: patent US4613586A, “Gastrin releasing peptide-like peptides” (Board of Trustees of the Leland Stanford Junior University, priority 1984, dated 1986)
No end group written: not given here.

What was measured:
Type in all cases: binding, rabbit
[1] = system: GRP(1-27) antisera Code R3-2; assay: GRP carboxyterminal radioimmunoassay (crossreactivity, displacement of 125I-GRP(1-27) trace); settings: for Percent Crossreactivity in RIA GRP(1-27) Code R3-2: antisera dilution 1:20,000, GRP(1-27) trace and standard, based on amount of unlabeled peptide for 50 percent displacement, highest concentration tested 1 μM; for Crossreactivity with GRP carboxyterminal antiserum (in words): summary of Table 1
Excerpt: (§1) Three GRP antisera were generated in rabbits against synthetic porcine GRP and GRP(1-16) (Peninsula Laboratories, San Carlos, CA) linked by a water soluble carbodiimide to bovine throglobulin (as described by Weber, E., Evans, C. J., Chang, J-K. and Barchas, J. D., J. Neurochem 38, 436-447 (1982). RIA conditions have been described in Weber, E., Evans, C. J., and Barchas, J. D., Nature 299, 77-79 (1982). Three GRP RIA's were utilized, the specificity of these RIA's is indicated in Table 1.
(§2) An antisera dilution of 1:20,000 for the GRP(1-27) R3-2 antisera and a dilution of 1:15,000 for the GRP(1-16) R2-6A were used for RIA. For these RIA's GRP(1-27) was used as ^125 I-trace and standard. An antisera dilution of 1:20,000 for GRP(1-16) R2-6B and GRP(1-16) trace and standard were used in the GRP(1-16) carboxyterminal assay. Crossreactivity was based on the amount of unlabeled peptide needed to obtain a 50 percent displacement of ^125 I-trace from the antisera. The highest concentration of unlabeled peptide tested was 1 μM.

[2] = system: GRP(1-16) antisera Code R2-6A; assay: GRP aminoterminal radioimmunoassay (crossreactivity, displacement of 125I-GRP(1-27) trace); settings: summary of Table 1
Excerpt: as §1, §2

[3] = system: GRP(1-16) antisera Code R2-6B; assay: GRP(1-16) carboxyterminal radioimmunoassay (crossreactivity, displacement of 125I-GRP(1-16) trace); settings: summary of Table 1
Excerpt: as §1, §2

Row | Molecule | Percent Crossreactivity in RIA GRP(1-27) Code R3-2 [1] [%] | Crossreactivity with GRP carboxyterminal antiserum (in words) [1] | Crossreactivity in GRP aminoterminal RIA (in words) [2] | Crossreactivity with GRP(1-16) carboxyterminal antisera (in words) [3]
1 | CSCC[C@H](NC(=O)[C@H](CC(C)C)NC(=O)[C@H](Cc1c[nH]cn1)NC(=O)CNC(=O)[C@@H](NC(=O)[C@H](C)NC(=O)[C@H](Cc1c[nH]c2ccccc12)NC(=O)[C@H](Cc1c[nH]cn1)NC(=O)[C@H](CC(N)=O)NC(=O)CN)C(C)C)C(N)=O [GRP(18-27), Gly-Asn-His-Trp-Ala-Val-Gly-His-Leu-Met-NH2] | 60 | crossreacted | not | –
2 | CSCC[C@H](NC(=O)[C@H](CC(C)C)NC(=O)[C@H](Cc1cnc[nH]1)NC(=O)CNC(=O)[C@@H](NC(=O)[C@H](C)NC(=O)[C@H](Cc1c[nH]c2ccccc12)NC(=O)[C@H](CCC(N)=O)NC(=O)[C@H](CC(N)=O)NC(=O)CNC(=O)[C@H](CC(C)C)NC(=O)[C@H](CCCN=C(N)N)NC(=O)[C@H](CCC(N)=O)NC(=O)[C@@H]1CCC(=O)N1)C(C)C)C(N)=O [Bombesin] | 30 | crossreacted | – | –
3 | APVSVGGGTVLAKMYPRGNHWAVGHLM-NH2 [GRP] | 100 | crossreacted | crossreacted | little crossreactivity
